Data from patent US8841090B2 (priority 2006, dated 2014).
Entries after “also recorded” stand apart in the source; their conditions may differ. Read-outs that look alike come from different tables or passages of the source.

How the values were obtained:
[1] = target: T1, Gal2 permease (Saccharomyces cerevisiae, UniProt P13181, G90S/H392R/M8V/S50P); type: cell-based, S. cerevisiae; conditions: for Competition with L-arabinose transport by Gal2 permease: competing sugars
T1 construct: expressed in transfected cells; host or cells: S. cerevisiae BFY597 (gal2Δ::HIS3, plasmids p138 and p42)
T1 sequence (P13181 whole entry M8V/S50P/G90S/H392R): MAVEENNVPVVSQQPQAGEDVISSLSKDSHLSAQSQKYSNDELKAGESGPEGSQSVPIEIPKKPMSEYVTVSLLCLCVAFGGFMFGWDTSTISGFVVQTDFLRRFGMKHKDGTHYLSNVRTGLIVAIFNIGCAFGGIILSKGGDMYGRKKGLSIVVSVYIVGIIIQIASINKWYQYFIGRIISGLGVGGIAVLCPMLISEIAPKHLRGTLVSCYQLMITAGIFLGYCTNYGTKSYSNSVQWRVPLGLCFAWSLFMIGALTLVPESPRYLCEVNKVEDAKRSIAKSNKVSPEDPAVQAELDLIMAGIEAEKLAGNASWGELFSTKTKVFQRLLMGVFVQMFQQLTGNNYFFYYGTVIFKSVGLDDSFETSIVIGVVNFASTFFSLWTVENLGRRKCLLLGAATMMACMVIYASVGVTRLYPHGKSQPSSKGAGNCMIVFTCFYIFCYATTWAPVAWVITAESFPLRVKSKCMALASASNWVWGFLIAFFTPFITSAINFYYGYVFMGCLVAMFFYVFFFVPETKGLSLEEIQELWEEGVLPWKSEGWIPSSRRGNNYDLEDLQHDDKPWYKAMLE
Protocol: (§1) Cells are collected in mid-growth and washed twice before suspension in water at 30 mg/ml. Uptake of L-(1-^14C)arabinose (54 mCi/mmol, Moravek Biochemicals Inc.) or D-(1-^14C) galactose (57 mCi/mmol, Amersham Biosciences) is measured as previously described by Stambuk et al. (2003). Assays are performed in 30 seconds to maintain initial rates after appropriate experiments to ensure uptake is linear for at least 1 minute. […] Inhibition and competition assays are performed as previously described by Stambuk et al, (2003).
(§2) The transport characteristics of the KmLat1 and the Gal2 transporters expressed in S. cerevisiae were compared.

[2] = target: KmLat1 transporter (Kluyveromyces marxianus, UniProt A0ABX6EN84); assay: L-arabinose transport by KmLat1 expressed in S. cerevisiae, 14C-sugar uptake; type: cell-based; conditions: for Competition with L-arabinose transport by KmLat1: competing sugars; for Inhibition of L-arabinose transport by KmLat1: protonophores and H+-ATPase inhibitors
Chain of KmLat1 transporter (Kluyveromyces marxianus, UniProt A0ABX6EN84) (A0ABX6EN84 entry or part of it): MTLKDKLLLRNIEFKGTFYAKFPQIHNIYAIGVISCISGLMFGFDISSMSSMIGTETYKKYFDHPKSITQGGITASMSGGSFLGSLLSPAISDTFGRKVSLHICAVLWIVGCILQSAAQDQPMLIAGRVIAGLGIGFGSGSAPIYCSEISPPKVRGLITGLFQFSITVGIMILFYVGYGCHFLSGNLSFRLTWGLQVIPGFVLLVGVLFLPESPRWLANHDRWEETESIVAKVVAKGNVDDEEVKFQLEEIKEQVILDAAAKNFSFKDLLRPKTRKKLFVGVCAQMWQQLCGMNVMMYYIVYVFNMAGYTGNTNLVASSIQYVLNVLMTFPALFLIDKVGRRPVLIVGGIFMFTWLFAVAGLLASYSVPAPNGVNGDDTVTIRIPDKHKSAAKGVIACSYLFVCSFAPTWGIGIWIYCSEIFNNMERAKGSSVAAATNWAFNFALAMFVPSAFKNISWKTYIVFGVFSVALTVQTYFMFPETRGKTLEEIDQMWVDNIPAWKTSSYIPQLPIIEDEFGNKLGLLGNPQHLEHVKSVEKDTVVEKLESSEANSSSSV
Protocol: as §1, §2

[3] = test system: P. guilliermondii Y-2075; assay: Sugar transport in wild type P. guilliermondii Y-2075 grown on L-arabinose; type: cell-based, Pichia guilliermondii
Protocol: (§3) Cells were collected in mid-growth and washed twice in water before suspension in water at about 30 mg/ml. […] Assays were performed in 5, 10, or 30 second periods to maintain initial rates. Appropriate experiments ensured uptake was linear for at least 1 minute. Transport activity was described as nmoles of labeled sugar transported per mg cell dry weight per minute.

[4] = target: PgLAT2 transporter (Meyerozyma guilliermondii, UniProt A5DRF8); assay: L-arabinose transport by PgLAT2 transporter expressed in S. cerevisiae BFY605; conditions: for Competition with L-arabinose uptake by PgLAT2: competing sugars; for Inhibition of L-arabinose transport by PgLAT2: protonophores and H+-ATPase inhibitors
Protocol: as §3

[5] = test system: KmLat1 transporter; assay: L-arabinose transport by KmLat1 expressed in S. cerevisiae, 14C-sugar uptake; type: cell-based, Kluyveromyces marxianus
Protocol: as §1, §2

[6] = competing sugar 900 mM, 30 mM labeled L-arabinose, no sugar = 100
[7] = inhibitor NaN3 10 mM, others 5 mM, […] labeled L-arabinose, no inhibitor = 100
[8] = inhibitor NaN3 10 mM, others 5 mM, 0.33 mM labeled L-arabinose, none = 100

## O=C[C@H](O)[C@@H](O)[C@H](O)CO [Xylose]
[1]; [6]
  Relative L-arabinose transport (%) Gal2: 25%
[1]
  Competition with L-arabinose transport by Gal2 permease: significantly reduced
[2]
  Relative L-arabinose transport (%) KmLat1: 25%
  Competition with L-arabinose transport by KmLat1: out-competed
[3]
  Relative L-arabinose transport P. guilliermondii: 4
[3]; 100× un-labeled competing sugar
  Reduction of uptake of labeled L-arabinose: 96%
[4]
  Relative L-arabinose transport S. cerevisiae (PgLAT2 transporter): 0
  Competition with L-arabinose uptake by PgLAT2: inhibited

## [N-]=[N+]=[N-].[Na+] [NaN3]
[1]; [7]
  Relative L-arabinose transport (%) Gal2: 66%
[2]; [7]
  Relative L-arabinose transport (%) KmLat1: 11%
[2]
  Inhibition of L-arabinose transport by KmLat1: not significantly inhibited
[3]; [8]
  Relative L-arabinose transport P. guilliermondii: 1
[4]; [8]
  Relative L-arabinose transport S. cerevisiae (PgLAT2 transporter): 16
[4]
  Inhibition of L-arabinose transport by PgLAT2: significant inhibition

## N#CC(C#N)=NNc1cccc(Cl)c1 [CCCP]
[1]; [7]
  Relative L-arabinose transport (%) Gal2: 46%
[2]
  Relative L-arabinose transport (%) KmLat1: 61%
  Inhibition of L-arabinose transport by KmLat1: not significantly inhibited
[3]; [8]
  Relative L-arabinose transport P. guilliermondii: 0
[4]
  Relative L-arabinose transport S. cerevisiae (PgLAT2 transporter): 2
  Inhibition of L-arabinose transport by PgLAT2: significant inhibition

## C(=NC1CCCCC1)=NC1CCCCC1 [DCCD]
[1]; [7]
  Relative L-arabinose transport (%) Gal2: 69%
[2]
  Relative L-arabinose transport (%) KmLat1: 55%
  Inhibition of L-arabinose transport by KmLat1: Neither is KmLat1 inhibited
[3]
  Relative L-arabinose transport P. guilliermondii: 22
[4]
  Relative L-arabinose transport S. cerevisiae (PgLAT2 transporter): 36
  Inhibition of L-arabinose transport by PgLAT2: significant inhibition

## OC[C@H]1O[C@H](O[C@H]2[C@H](O)[C@@H](O)C(O)O[C@@H]2CO)[C@H](O)[C@@H](O)[C@@H]1O (mixture of isomers) [Maltose]
[2]
  Relative L-arabinose transport (%) KmLat1: 38%
  Competition with L-arabinose transport by KmLat1: out-competed
[4]
  Relative L-arabinose transport S. cerevisiae (PgLAT2 transporter): 30
  Competition with L-arabinose uptake by PgLAT2: to a lesser extent

## CC/C(=C(/CC)c1ccc(O)cc1)c1ccc(O)cc1 [DESB]
[1]; [7]
  Relative L-arabinose transport (%) Gal2: 81%
[2]; [7]
  Relative L-arabinose transport (%) KmLat1: 100%
[2]
  Inhibition of L-arabinose transport by KmLat1: Neither is KmLat1 inhibited
[3]; [8]
  Relative L-arabinose transport P. guilliermondii: 8
[4]; [8]
  Relative L-arabinose transport S. cerevisiae (PgLAT2 transporter): 1
[4]
  Inhibition of L-arabinose transport by PgLAT2: significant inhibition

## O=C[C@H](O)[C@@H](O)[C@@H](O)[C@H](O)CO [Galactose]
[1]; BFY597
  Vmax for galactose transport by Gal2p: 76 nmol/mg/min
[1]; [6]
  Relative L-arabinose transport (%) Gal2: 3%
[1]
  Competition with L-arabinose transport by Gal2 permease: significantly reduced; also recorded: out-competed
[1]; read-out: Km for galactose transport by Gal2p, BFY597
  Km: 25 mM
[5]; competing sugar 900 mM (maltose 450 mM), 30 mM labeled L-arabinose, no sugar = 100
  Relative L-arabinose transport (%) KmLat1: 23%
[5]; competing sugars
  Competition with L-arabinose transport by KmLat1: out-competed
[4]
  Competition with L-arabinose uptake by PgLAT2: inhibited

## O=[N+]([O-])c1ccc(O)c([N+](=O)[O-])c1 [DNP]
[1]; [7]
  Relative L-arabinose transport (%) Gal2: 72%
[2]; [7]
  Relative L-arabinose transport (%) KmLat1: 75%
[2]
  Inhibition of L-arabinose transport by KmLat1: not significantly inhibited
[3]; [8]
  Relative L-arabinose transport P. guilliermondii: 0
[4]; [8]
  Relative L-arabinose transport S. cerevisiae (PgLAT2 transporter): 4
[4]
  Inhibition of L-arabinose transport by PgLAT2: significant inhibition
